Source: ChEMBL document CHEMBL4390666, “Chemical manipulations on the 1,4-dioxane ring of 5-HT1A receptor agonists lead to antagonists endowed with antitumor activity in prostate cancer cells” (Eur J Med Chem, 2019)
The source made the active and inactive calls. The rule behind the calls is not given here.

Key:
[1] = biological target: T1, Alpha-1A adrenergic receptor (Homo sapiens, UniProt P35348); assay: biochemical
T1 sequence (P35348 whole entry): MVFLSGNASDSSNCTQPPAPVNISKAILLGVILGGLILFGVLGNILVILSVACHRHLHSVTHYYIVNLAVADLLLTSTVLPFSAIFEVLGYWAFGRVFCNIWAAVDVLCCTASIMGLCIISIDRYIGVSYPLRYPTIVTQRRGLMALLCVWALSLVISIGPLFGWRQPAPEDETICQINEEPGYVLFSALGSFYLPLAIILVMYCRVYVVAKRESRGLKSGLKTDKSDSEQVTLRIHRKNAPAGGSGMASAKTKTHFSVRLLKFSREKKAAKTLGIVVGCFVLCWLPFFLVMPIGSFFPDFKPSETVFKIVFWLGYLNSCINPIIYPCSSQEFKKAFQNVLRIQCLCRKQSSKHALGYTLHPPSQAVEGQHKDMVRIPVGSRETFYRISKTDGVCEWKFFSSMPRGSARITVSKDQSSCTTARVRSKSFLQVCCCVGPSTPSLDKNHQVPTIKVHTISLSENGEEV
Description: Displacement of [3H]Prazosin from human recombinant alpha 1A adrenergic receptor expressed in CHO cells incubated for 30 mins by radioligand competition binding assay

[2] = biological target: T2, Alpha-1B adrenergic receptor (Homo sapiens, UniProt P35368); assay: biochemical
T2 sequence (P35368 whole entry): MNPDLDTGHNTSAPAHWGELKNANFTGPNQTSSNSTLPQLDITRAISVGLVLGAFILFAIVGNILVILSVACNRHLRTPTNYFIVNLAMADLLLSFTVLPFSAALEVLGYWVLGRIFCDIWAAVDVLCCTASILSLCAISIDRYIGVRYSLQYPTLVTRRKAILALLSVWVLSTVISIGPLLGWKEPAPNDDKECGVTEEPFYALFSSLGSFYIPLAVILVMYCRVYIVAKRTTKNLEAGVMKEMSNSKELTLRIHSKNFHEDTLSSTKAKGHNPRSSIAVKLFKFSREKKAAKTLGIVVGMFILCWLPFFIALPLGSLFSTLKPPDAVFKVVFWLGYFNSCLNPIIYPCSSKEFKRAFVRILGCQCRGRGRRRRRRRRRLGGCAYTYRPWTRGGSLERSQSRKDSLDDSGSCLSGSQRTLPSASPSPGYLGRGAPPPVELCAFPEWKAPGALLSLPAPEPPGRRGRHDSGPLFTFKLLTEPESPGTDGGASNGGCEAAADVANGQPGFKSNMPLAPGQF
Description: Displacement of [3H]Prazosin from human recombinant alpha 1B adrenergic receptor expressed in CHO cells incubated for 30 mins by radioligand competition binding assay

[3] = biological target: T3, Alpha-1D adrenergic receptor (Homo sapiens, UniProt P25100); assay: biochemical
T3 sequence (P25100 whole entry): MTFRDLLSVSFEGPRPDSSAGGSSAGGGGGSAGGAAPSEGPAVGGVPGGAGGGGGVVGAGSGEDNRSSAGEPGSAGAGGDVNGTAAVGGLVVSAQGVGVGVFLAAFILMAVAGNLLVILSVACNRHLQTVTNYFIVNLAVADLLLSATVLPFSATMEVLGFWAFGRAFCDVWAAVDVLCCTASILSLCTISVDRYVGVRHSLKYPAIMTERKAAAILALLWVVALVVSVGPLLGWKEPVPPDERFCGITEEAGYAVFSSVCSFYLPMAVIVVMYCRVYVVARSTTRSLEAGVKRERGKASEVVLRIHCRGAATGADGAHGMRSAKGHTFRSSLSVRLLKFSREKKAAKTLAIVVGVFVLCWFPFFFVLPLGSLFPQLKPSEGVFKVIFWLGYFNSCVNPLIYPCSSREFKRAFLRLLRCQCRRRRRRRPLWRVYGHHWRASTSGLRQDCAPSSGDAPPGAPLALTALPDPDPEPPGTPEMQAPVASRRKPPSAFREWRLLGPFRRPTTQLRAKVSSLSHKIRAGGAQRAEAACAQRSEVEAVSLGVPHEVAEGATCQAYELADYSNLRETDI
Description: Displacement of [3H]Prazosin from human recombinant alpha 1D adrenergic receptor expressed in CHO cells incubated for 30 mins by radioligand competition binding assay

[4] = biological target: T4, 5-hydroxytryptamine receptor 1A (Homo sapiens, UniProt P08908); assay: biochemical
T4 sequence (P08908 whole entry): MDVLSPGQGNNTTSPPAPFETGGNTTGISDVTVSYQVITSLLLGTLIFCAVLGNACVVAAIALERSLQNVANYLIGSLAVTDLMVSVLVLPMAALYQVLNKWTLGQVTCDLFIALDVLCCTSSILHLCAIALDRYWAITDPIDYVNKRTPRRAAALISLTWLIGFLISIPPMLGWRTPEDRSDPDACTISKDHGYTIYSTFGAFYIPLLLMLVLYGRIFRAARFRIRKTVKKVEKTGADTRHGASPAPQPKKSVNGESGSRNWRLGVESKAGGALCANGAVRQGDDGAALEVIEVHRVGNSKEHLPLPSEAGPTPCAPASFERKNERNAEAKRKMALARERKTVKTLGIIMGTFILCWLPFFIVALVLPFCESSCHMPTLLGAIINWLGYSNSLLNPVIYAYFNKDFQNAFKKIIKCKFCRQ

[5] = test system: DU-145; assay: Inhibition of 5-HT-stimulated human DU145 cells proliferation at 5 to 10 uM incubated for 48 hrs by SRB assay; assay type: functional, cell-based
[6] = test system: PC-3; assay: Inhibition of 5-HT-stimulated human PC3 cells proliferation at 5 to 10 uM incubated for 48 hrs by SRB assay; assay type: functional, cell-based
[7] = biological target: D(2) dopamine receptor (Homo sapiens, UniProt P14416); assay: Displacement of [3H]N-methylspiperone from human dopamine D2 receptor expressed in HEK293 cell membranes incubated for 1 hr by liquid scintillation counting
[8] = biological target: D(3) dopamine receptor (Homo sapiens, UniProt P35462); assay: Displacement of [3H]N-methylspiperone from human dopamine D3 receptor expressed in HEK293 cell membranes incubated for 1 hr by liquid scintillation counting
[9] = biological target: T5, D(4) dopamine receptor (Homo sapiens, UniProt P21917); assay: Displacement of [3H]N-methylspiperone from human dopamine D4 receptor expressed in HEK293 cell membranes incubated for 1 hr by liquid scintillation counting
T5 sequence (P21917 whole entry): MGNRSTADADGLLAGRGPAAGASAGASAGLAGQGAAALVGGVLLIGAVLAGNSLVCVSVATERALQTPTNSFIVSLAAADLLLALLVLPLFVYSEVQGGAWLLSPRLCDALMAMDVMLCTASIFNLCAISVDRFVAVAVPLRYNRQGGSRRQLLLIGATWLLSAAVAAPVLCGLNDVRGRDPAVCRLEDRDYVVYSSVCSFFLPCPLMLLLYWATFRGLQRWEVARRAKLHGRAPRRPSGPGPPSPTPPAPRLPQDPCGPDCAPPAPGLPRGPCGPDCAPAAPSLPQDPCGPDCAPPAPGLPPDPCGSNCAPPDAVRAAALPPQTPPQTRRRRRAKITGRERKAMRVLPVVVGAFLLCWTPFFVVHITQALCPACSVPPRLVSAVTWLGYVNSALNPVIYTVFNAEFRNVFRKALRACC

[10] = test system: PC-3; assay: Growth inhibition of human PC3 cells incubated for 48 hrs by SRB assay; assay type: functional; conditions: PC-3, 48 h; for CC50: read-out: LC50 (the source's name)
[11] = test system: DU-145; assay: Growth inhibition of human DU145 cells incubated for 48 hrs by SRB assay; assay type: functional; conditions: DU-145, 48 h; for CC50: read-out: LC50 (the source's name)
[12] = (§1) Growth inhibition of human fibroblast cells incubated for 48 hrs by SRB assay; assay type: cell-based; conditions: human fibroblast cells
[13] = test system: Fibroblast; assay: as §1; assay type: cell-based; conditions: fibroblast, 48 h
[14] = test system: PC-3; assay: Inhibition of norepinephrine-stimulated human PC3 cells proliferation at 5 to 10 uM incubated for 48 hrs by SRB assay; assay type: functional, cell-based
[15] = test system: DU-145; assay: Inhibition of norepinephrine-stimulated human DU145 cells proliferation at 5 to 10 uM incubated for 48 hrs by SRB assay; assay type: functional, cell-based
[16] = biological target: T6, 5-hydroxytryptamine receptor 1A (Homo sapiens) (UniProt P08908); conditions: HeLa
T6 sequence (whole entry): T4 sequence (P08908 whole entry)

[17] = biological target: T6, 5-hydroxytryptamine receptor 1A (Homo sapiens); assay: Agonist activity at cloned human 5-HT1A receptor transfected in human HeLa cell membranes preincubated for 20 mins followed by [35S]GTPgammaS addition and measured after 30 mins by liquid scintillation counting relative to 8-OH-DPAT; assay type: functional
[18] = biological target: T6, 5-hydroxytryptamine receptor 1A (Homo sapiens); assay: Agonist activity at cloned human 5-HT1A receptor transfected in human HeLa cell membranes assessed as stimulation of [35S]GTPgammaS binding preincubated for 20 mins followed by [35S]GTPgammaS addition and measured after 30 mins by liquid scintillation counting; assay type: functional

Chain of D(2) dopamine receptor (P14416 whole entry): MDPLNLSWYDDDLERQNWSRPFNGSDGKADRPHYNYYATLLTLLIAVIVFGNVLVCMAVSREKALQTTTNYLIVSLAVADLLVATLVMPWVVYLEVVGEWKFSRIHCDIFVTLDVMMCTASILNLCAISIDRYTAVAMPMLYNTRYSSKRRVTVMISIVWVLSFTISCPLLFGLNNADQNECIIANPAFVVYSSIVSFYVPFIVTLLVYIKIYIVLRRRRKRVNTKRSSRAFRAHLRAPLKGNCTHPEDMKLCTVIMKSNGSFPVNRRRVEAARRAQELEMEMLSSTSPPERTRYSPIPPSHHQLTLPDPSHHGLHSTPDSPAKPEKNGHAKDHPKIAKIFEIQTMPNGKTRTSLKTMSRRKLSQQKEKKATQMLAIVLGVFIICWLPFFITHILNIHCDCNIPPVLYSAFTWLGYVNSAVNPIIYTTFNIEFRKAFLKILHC
Chain of D(3) dopamine receptor (P35462 whole entry): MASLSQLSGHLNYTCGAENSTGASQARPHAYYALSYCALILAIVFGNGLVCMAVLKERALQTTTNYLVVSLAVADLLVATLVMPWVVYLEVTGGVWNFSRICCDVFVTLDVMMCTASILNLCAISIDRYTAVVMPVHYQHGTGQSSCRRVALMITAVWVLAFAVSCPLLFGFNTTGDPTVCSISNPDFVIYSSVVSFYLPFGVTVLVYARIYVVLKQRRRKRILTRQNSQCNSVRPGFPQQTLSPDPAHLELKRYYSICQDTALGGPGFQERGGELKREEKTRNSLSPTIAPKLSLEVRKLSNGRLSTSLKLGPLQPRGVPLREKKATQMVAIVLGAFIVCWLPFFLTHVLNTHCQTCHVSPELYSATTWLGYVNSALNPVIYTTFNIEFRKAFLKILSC

| SMILES | Ki [1] [nM] | Ki [2] [nM] | Ki [3] [nM] | Ki [4] [nM] | further results |
| --- | --- | --- | --- | --- | --- |
| COc1cccc(OC)c1OCCNCC1(c2ccccc2)COCCO1 (stereo not drawn) | > 1000 | > 1000 | > 1000 | > 1000 |  |
| COc1ccccc1OCCNCC1OCCOC1(c1ccccc1)c1ccccc1 (stereo not drawn) | > 1000 | 67.6 | 7.41 | 3.98 | inhibition [5]: Active; inhibition [6]: Active; Ki [7]: 324 nM; Ki [8]: 537 nM; Ki [9]: 275 nM; GI50 [10]: 13000 nM; TGI [10]: 29000 nM; CC50 [10]: 68000 nM; GI50 [11]: 18000 nM; TGI [11]: 32000 nM; CC50 [11]: 55000 nM; GI50 at 48 h [12]: 30500 nM; LC50 [13]: 99600 nM; TGI [13]: 50200 nM; inhibition [14]: Active; inhibition [15]: Active; pKb [16]: 8.5 |
| COc1ccccc1N1CCN(C[C@H]2OCCOC2(c2ccccc2)c2ccccc2)CC1 | 355 | 380 | 89.1 | 12 | Ki [7]: 2190 nM; Ki [8]: 2880 nM; Ki [9]: 9770 nM; GI50 [10]: 25000 nM; TGI [10]: 78000 nM; CC50 [10]: 240000 nM; GI50 [11]: 35000 nM; TGI [11]: 80000 nM; CC50 [11]: 180000 nM; GI50 at 48 h [12]: > 300000 nM; LC50 [13]: > 300000 nM; TGI [13]: > 300000 nM; pKb [16]: 8.14 |
| COc1ccccc1N1CCN(C[C@H]2OCCO[C@@H]2c2ccccc2)CC1 (relative stereo) | > 1000 | > 1000 | 53.7 | 214 |  |
| COc1ccccc1OCCNC[C@H]1OCCO[C@H]1c1ccccc1 (relative stereo) | > 1000 | > 1000 | 126 | 20.4 | Emax [17]: 24.3%; pD2 [18]: 7.13 |
| COc1ccccc1N1CCN(CC2(c3ccccc3)COCCO2)CC1 (stereo not drawn) | > 1000 | > 1000 | > 1000 | 174 |  |
| COc1ccccc1OCCNCC1COCC(c2ccccc2)(c2ccccc2)O1 (stereo not drawn) |  |  |  |  | pD2 [18]: 9.4; GI50 [10]: 26000 nM; TGI [10]: 64000 nM; CC50 [10]: 157000 nM; GI50 [11]: 23000 nM; TGI [11]: 42000 nM; CC50 [11]: 77000 nM; GI50 at 48 h [12]: 38400 nM; LC50 [13]: > 300000 nM; TGI [13]: 121600 nM |
| c1ccc(OCCNCC2OCCOC2(c2ccccc2)c2ccccc2)cc1 (stereo not drawn) | > 1000 | > 1000 | 316 | 28.2 | Emax [17]: 32.9%; pD2 [18]: 6.71 |
| COc1ccccc1N1CCN(C[C@H]2OCCO[C@H]2c2ccccc2)CC1 (relative stereo) | > 1000 | > 1000 | 191 | 70.8 |  |
| c1ccc(OCCNCC2(c3ccccc3)COCCO2)cc1 (stereo not drawn) | > 1000 | > 1000 | > 1000 | 269 |  |

Second part, led by results:

| Ki [1] [nM] | Ki [2] [nM] | Ki [3] [nM] | Ki [4] [nM] | SMILES | further results |
| --- | --- | --- | --- | --- | --- |
| > 1000 | > 1000 | > 1000 | 214 | c1ccc(OCCNC[C@H]2OCCO[C@H]2c2ccccc2)cc1 (relative stereo) |  |
| > 1000 | > 1000 | 69.2 | 75.9 | COc1ccccc1OCCNCC1(c2ccccc2)COCCO1 (stereo not drawn) |  |
| > 1000 | > 1000 | > 1000 | 97.7 | COc1cccc(OC)c1OCCNC[C@H]1OCCO[C@@H]1c1ccccc1 (relative stereo) |  |
| > 1000 | > 1000 | > 1000 | 182 | COc1cccc(OC)c1OCCNC[C@H]1OCCO[C@H]1c1ccccc1 (relative stereo) |  |
| > 1000 | > 1000 | > 1000 | 55 | c1ccc(OCCNC[C@H]2OCCO[C@@H]2c2ccccc2)cc1 (relative stereo) |  |
| > 1000 | > 1000 | > 1000 | 66.1 | COc1cccc(OC)c1OCCNCC1OCCOC1(c1ccccc1)c1ccccc1 (stereo not drawn) |  |
| > 1000 | > 1000 | 95.5 | 9.55 | COc1ccccc1OCCNC[C@H]1OCCO[C@@H]1c1ccccc1 (relative stereo) | pKb [16]: 8.2 |
| 2.63 | 22.9 | 1.74 | 5.01 | COc1ccccc1N1CCN(CC2COCC(c3ccccc3)(c3ccccc3)O2)CC1 (stereo not drawn) | Emax [17]: 39.3%; Ki [7]: 112 nM; Ki [8]: 257 nM; Ki [9]: 1380 nM; pD2 [18]: 7.01 |
